The test system of test [1] is CEM-SS. In words: Tested for the inhibition of HIV-1 in CEM-SS cells measured using Syncytial assay. It counts as functional, cell-based. The conditions noted are these: Homo sapiens.
For test [2], the system named is CEM-SS. In words: Tested for the cytotoxicity against CEM-SS cells (determined by the inhibition of [3H]-thymidine uptake). The class given is functional. The note with it: Homo sapiens.
Test [3] deals with Human immunodeficiency virus type 1 reverse transcriptase (Human immunodeficiency virus 1, UniProt Q72547). In words: Tested for the inhibition of HIV-1 reverse transcriptase using a ribosomal RNA template.
Test [4] addresses Human immunodeficiency virus type 1 reverse transcriptase (Human immunodeficiency virus 1) (UniProt Q72547). In words: Tested for the inhibition of HIV-1 reverse transcriptase at a concentration of 100 ug/mL using a ribosomal RNA template.
Test [5] has the same target. In words: Tested for the inhibition of HIV-1 reverse transcriptase at a concentration of 10 ug/mL using a ribosomal RNA template.
Test [6] can be described thus: Selectivity index was determined by the ratio of CC50 to IC50. The class given is functional.

Experimental findings from ChEMBL document CHEMBL1149977, “Synthesis of 1-(2-aminopropyl)benzimidazoles, structurally related to the TIBO derivative R82150, with activity against human immunodeficiency virus” (Bioorg Med Chem Lett, 1993) are described below.

What is called IC50 is the concentration that gives 50% inhibition. For orientation: CC50 means the concentration giving 50% cytotoxicity. Low values mean greater toxicity to the cells, high ones lower toxicity to the cells. A word on the inhibition: it is how much of the control response was suppressed. A low value points to a weak effect.

As for `CC(C)=CCN1Cc2cc(Cl)cc3[nH]c(=S)n(c23)C[C@@H]1C`, the half-maximal inhibitory concentration (IC50) is 0.055 µM with CEM-SS [1] and 0.0155 µM in test [3]. This molecule also returned a CC50 in the test with CEM-SS [2] of 35 µM.

In the test with CEM-SS [1], `CC(Cn1c(S)nc2ccccc21)NCc1ccccc1` (stereo not drawn) gave an IC50 of 4.3 µM. The inhibition in test [4] was 36%; in test [5] it was 17%. Also, in the test on CEM-SS [2], the CC50 was 82 µM. Moreover, the Selectivity index in test [6] stood at 19.

`CC(Cn1c(S)nc2ccccc21)N(C)Cc1ccccc1` (stereo not drawn) displayed an IC50 with CEM-SS [1] of 20 µM. For the same molecule, the figures for the inhibition in test [4] and in test [5] were 31% and 13%, respectively. The molecule further gave a cytotoxic concentration (CC50) with CEM-SS [2] of 79 µM.

Take `CC(C)=CCNC(C)Cn1c(S)nc2ccccc21` (stereo not drawn): in the test on CEM-SS [1], it took 23 µM to reach half-maximal inhibition (IC50). The inhibition in test [4] stood at 46%; in test [5] it was 19%. The molecule also displayed a CC50 in the test with CEM-SS [2] of 81 µM.

The molecule `C=CCNC(C)Cn1c(S)nc2ccccc21` (stereo not drawn) gave a 50% inhibitory concentration (IC50) in the test on CEM-SS [1] of 28 µM. Besides, the inhibition was determined as 29% in test [4] and 4.5% in test [5]. The molecule further registered a CC50 with CEM-SS [2] greater than 100 µM.

In the test on CEM-SS [1], `C=CCN(C)C(C)Cn1c(S)nc2ccccc21` (stereo not drawn) returned an IC50 of 23 µM. The same molecule came in with a cytotoxic concentration (CC50) in the test on CEM-SS [2] greater than 100 µM.

`CC(C)=CCN1Cc2cccc3[nH]c(=S)n(c23)C[C@@H]1C` returned an IC50 in the test with CEM-SS [1] of 0.026 µM. Besides, the CC50 in the test with CEM-SS [2] was 79 µM.

As to `CC(C)=CCN(C)C(C)Cn1c(S)nc2ccccc21` (stereo not drawn), in the test with CEM-SS [1], the IC50 was found to be 14 µM. The inhibition in test [4] worked out at 34%; in test [5] it was 19%. In the test with CEM-SS [2], this molecule showed a CC50 greater than 100 µM.
